Experiments:
[1] = test system: Glomerella lagenarium (Colletotrichum lagenarium); assay: Fungicidal activity against Glomerella lagenarium (Colletotrichum lagenarium), liquid culture, cucumber, preventative (anthracnose); type: cell-based; details: Colletotrichum orbiculare, liquid culture (PDB), growth inhibition measured photometrically 3-4 days after application, compared to untreated control
Procedure: Mycelia fragments or conidia suspensions of a fungus, prepared either freshly from liquid cultures of the fungus or from cryogenic storage, are directly mixed into nutrient broth. DMSO solutions of the test compound (max. 10 mg/ml) is diluted with 0.025% Tween20 by a factor of 50 and 10 μl of this solution is pipetted into a microtiter plate (96-well format). The nutrient broth containing the fungal spores/mycelia fragments is then added to give an end concentration of the tested compound. The test plates are incubated in the dark at 24° C. and 96% relative humidity. The inhibition of fungal growth is determined photometrically after 2 to 7 days, depending on the pathosystem, and percent antifungal activity relative to the untreated check is calculated. Conidia of the fungus from cryogenic storage are directly mixed into nutrient broth (PDB potato dextrose broth). After placing a (DMSO) solution of test compound into a microtiter plate (96-well format), the nutrient broth containing the fungal spores is added. The test plates are incubated at 24° C. and the inhibition of growth is measured photometrically 3-4 days after application.

Phakopsora pachyrhizi = assay: Fungicidal activity against Phakopsora pachyrhizi, soybean, leaf disc preventative (Asian soybean rust); type: in vivo; details: foliar, 288 h, 12-14 days after application, compared to untreated control
Procedure: Leaf disks or leaf segments of various plant species are cut from plants grown in a greenhouse. The cut leaf disks or segments are placed in multiwell plates (24-well format) onto water agar. The leaf disks are sprayed with a test solution before (preventative) or after (curative) inoculation. Compounds to be tested are prepared as DMSO solutions (max. 10 mg/ml) which are diluted to the appropriate concentration with 0.025% Tween20 just before spraying. The inoculated leaf disks or segments are incubated under defined conditions (temperature, relative humidity, light, etc.) according to the respective test system. A single evaluation of disease level is carried out 3 to 14 days after inoculation, depending on the pathosystem. Percent disease control relative to the untreated check leaf disks or segments is then calculated. Soybean leaf disks are placed on water agar in multiwell plates (24-well format) and sprayed with the formulated test compound diluted in water. One day after application leaf discs are inoculated by spraying a spore suspension on the lower leaf surface. After an incubation period in a climate cabinet of 24-36 hours in darkness at 20° C. and 75% rh leaf disc are kept at 20° C. with 12 h light/day and 75% rh. The activity of a compound is assessed as percent disease control compared to untreated when an appropriate level of disease damage appears in untreated check leaf disks (12-14 days after application).

[2] = test system: Puccinia recondita f. sp. tritici; assay: Fungicidal activity against Puccinia recondita f. sp. tritici, wheat, leaf disc curative (brown rust); type: in vivo; details: foliar, 144 h, wheat leaf segments, curative (applied 1 day after inoculation), 6-8 days after application, compared to untreated control
Procedure: (§1) Leaf disks or leaf segments of various plant species are cut from plants grown in a greenhouse. The cut leaf disks or segments are placed in multiwell plates (24-well format) onto water agar. The leaf disks are sprayed with a test solution before (preventative) or after (curative) inoculation. Compounds to be tested are prepared as DMSO solutions (max. 10 mg/ml) which are diluted to the appropriate concentration with 0.025% Tween20 just before spraying. The inoculated leaf disks or segments are incubated under defined conditions (temperature, relative humidity, light, etc.) according to the respective test system. A single evaluation of disease level is carried out 3 to 14 days after inoculation, depending on the pathosystem. Percent disease control relative to the untreated check leaf disks or segments is then calculated. Wheat leaf segments cv. Kanzler are placed on agar in multiwell plates (24-well format). The leaf segments are inoculated with a spore suspension of the fungus. Plates are stored in darkness at 19° C. and 75% rh. The formulated test compound diluted in water is applied 1 day after inoculation. The leaf segments are incubated at 19° C. and 75% rh under a light regime of 12 h light/12 h darkness in a climate cabinet and the activity of a compound is assessed as percent disease control compared to untreated when an appropriate level of disease damage appears in untreated check leaf segments (6-8 days after application).

[3] = test system: Puccinia recondita f. sp. tritici; assay: Fungicidal activity against Puccinia recondita f. sp. tritici, wheat, leaf disc preventative (brown rust); type: in vivo; details: foliar, wheat leaf segments, preventative (inoculated 1 day after application), 7-9 days after application, compared to untreated control
Procedure: as §1, with “plates (24-well format) and sprayed with the formulated test compound diluted in water. The leaf” for “plates (24-well format). The leaf”, “of the fungus 1 day” for “of the fungus. Plates are stored in darkness at 19° C. and 75% rh. The formulated test compound diluted in water is applied 1 day”, “day after application. The inoculated” for “day after inoculation. The leaf”, “application. The inoculated leaf segments” for “inoculation. The leaf segments”, “leaf segments (7-9 days after” for “leaf segments (6-8 days after”

O=C1C2CCC(C2)N1Cc1ccc(-c2noc(C(F)(F)F)n2)cc1 (stereo not drawn) [Compound A-24, 3-[[4-[5-(trifluoromethyl)-1,2,4-oxadiazol-3-yl]phenyl]methyl]-3-azabicyclo[2.2.1]heptan-2-one]
≥ 80%: inhibition of growth at 20 ppm [1] | pest or weed control at 200 ppm (Phakopsora pachyrhizi) | pest or weed control at 200 ppm [2] | pest or weed control at 200 ppm [3]

O=C1CCCC2(CC2)N1Cc1ccc(-c2noc(C(F)(F)F)n2)cc1 [Compound A-25, 4-[[4-[5-(trifluoromethyl)-1,2,4-oxadiazol-3-yl]phenyl]methyl]-4-azaspiro[2.5]octan-5-one]
≥ 80%: inhibition of growth at 20 ppm [1] | pest or weed control at 200 ppm (Phakopsora pachyrhizi) | pest or weed control at 200 ppm [2] | pest or weed control at 200 ppm [3]

O=C1CCC2(CC2)N1Cc1ccc(-c2noc(C(F)(F)F)n2)cc1 [Compound A-27, 4-[[4-[5-(trifluoromethyl)-1,2,4-oxadiazol-3-yl]phenyl]methyl]-4-aza-spiro[2.4]heptan-5-one]
≥ 80%: inhibition of growth at 20 ppm [1] | pest or weed control at 200 ppm (Phakopsora pachyrhizi) | pest or weed control at 200 ppm [2] | pest or weed control at 200 ppm [3]

O=C1CCCCN1Cc1ccc(-c2noc(C(F)(F)F)n2)cc1F [Compound A-29, 1-[[2-fluoro-4-[5-(trifluoromethyl)-1,2,4-oxadiazol-3-yl]phenyl]methyl]piperidin-2-one]
≥ 80%: inhibition of growth at 20 ppm [1] | pest or weed control at 200 ppm (Phakopsora pachyrhizi) | pest or weed control at 200 ppm [2] | pest or weed control at 200 ppm [3]

CCOC(=O)N1CCN(Cc2ccc(-c3noc(C(F)(F)F)n3)cc2)C(=O)C1 [Compound A-32, ethyl 3-oxo-4-[[4-[5-(trifluoromethyl)-1,2,4-oxadiazol-3-yl]phenyl]methyl]piperazine-1-carboxylate]
≥ 80%: inhibition of growth at 20 ppm [1] | pest or weed control at 200 ppm (Phakopsora pachyrhizi) | pest or weed control at 200 ppm [2] | pest or weed control at 200 ppm [3]

CC(=O)N1CCN(Cc2ccc(-c3noc(C(F)(F)F)n3)cc2)C(=O)C1 [Compound A-35, 4-acetyl-1-[[4-[5-(trifluoromethyl)-1,2,4-oxadiazol-3-yl]phenyl]methyl]piperazin-2-one]
≥ 80%: inhibition of growth at 20 ppm [1] | pest or weed control at 200 ppm (Phakopsora pachyrhizi) | pest or weed control at 200 ppm [2] | pest or weed control at 200 ppm [3]

O=C1CCCON1Cc1ccc(-c2noc(C(F)(F)F)n2)cc1 [Compound A-37, 2-[[4-[5-(trifluoromethyl)-1,2,4-oxadiazol-3-yl]phenyl]methyl]oxazinan-3-one]
≥ 80%: inhibition of growth at 20 ppm [1] | pest or weed control at 200 ppm (Phakopsora pachyrhizi) | pest or weed control at 200 ppm [2] | pest or weed control at 200 ppm [3]

CON(C)C(=O)N1CCN(Cc2ccc(-c3noc(C(F)(F)F)n3)cc2)C(=O)C1 [Compound A-39, N-methoxy-N-methyl-3-oxo-4-[[4-[5-(trifluoromethyl)-1,2,4-oxadiazol-3-yl]phenyl]methyl]piperazine-1-carboxamide]
≥ 80%: inhibition of growth at 20 ppm [1] | pest or weed control at 200 ppm (Phakopsora pachyrhizi) | pest or weed control at 200 ppm [2] | pest or weed control at 200 ppm [3]

O=C1CN(C(=O)C2CC2)CCN1Cc1ccc(-c2noc(C(F)(F)F)n2)cc1 [Compound A-40, 4-(cyclopropane-carbonyl)-1-[[4-[5-(trifluoromethyl)-1,2,4-oxadiazol-3-yl]phenyl]methyl]piperazin-2-one]
≥ 80%: inhibition of growth at 20 ppm [1] | pest or weed control at 200 ppm (Phakopsora pachyrhizi) | pest or weed control at 200 ppm [2] | pest or weed control at 200 ppm [3]

CN(C)S(=O)(=O)N1CCN(Cc2ccc(-c3noc(C(F)(F)F)n3)cc2)C(=O)C1 [Compound A-42, N,N-dimethyl-3-oxo-4-[[4-[5-(trifluoromethyl)-1,2,4-oxadiazol-3-yl]phenyl]methyl]piperazine-1-sulfonamide]
≥ 80%: inhibition of growth at 20 ppm [1] | pest or weed control at 200 ppm (Phakopsora pachyrhizi) | pest or weed control at 200 ppm [2] | pest or weed control at 200 ppm [3]

CNS(=O)(=O)N1CCN(Cc2ccc(-c3noc(C(F)(F)F)n3)cc2)C(=O)C1 [Compound A-43, N-methyl-3-oxo-4-[[4-[5-(trifluoromethyl)-1,2,4-oxadiazol-3-yl]phenyl]methyl]piperazine-1-sulfonamide]
≥ 80%: inhibition of growth at 20 ppm [1] | pest or weed control at 200 ppm (Phakopsora pachyrhizi) | pest or weed control at 200 ppm [2] | pest or weed control at 200 ppm [3]

CN1CCN(Cc2ccc(-c3noc(C(F)(F)F)n3)cc2)C1=O [Compound A-46, 1-methyl-3-[[4-[5-(trifluoromethyl)-1,2,4-oxadiazol-3-yl]phenyl]methyl]imidazolidin-2-one]
≥ 80%: inhibition of growth at 20 ppm [1] | pest or weed control at 200 ppm (Phakopsora pachyrhizi) | pest or weed control at 200 ppm [2] | pest or weed control at 200 ppm [3]

CN1C(=O)CN(Cc2ccc(-c3noc(C(F)(F)F)n3)cc2)C1=O [Compound A-47, 3-methyl-1-[[4-[5-(trifluoromethyl)-1,2,4-oxadiazol-3-yl]phenyl]methyl]imidazolidine-2,4-dione]
≥ 80%: inhibition of growth at 20 ppm [1] | pest or weed control at 200 ppm (Phakopsora pachyrhizi) | pest or weed control at 200 ppm [2] | pest or weed control at 200 ppm [3]

CN1CCCN(Cc2ccc(-c3noc(C(F)(F)F)n3)cc2)C1=O [Compound A-48, 1-methyl-3-[[4-[5-(trifluoromethyl)-1,2,4-oxadiazol-3-yl]phenyl]methyl]hexahydro-pyrimidin-2-one]
≥ 80%: inhibition of growth at 20 ppm [1] | pest or weed control at 200 ppm (Phakopsora pachyrhizi) | pest or weed control at 200 ppm [2] | pest or weed control at 200 ppm [3]

CN1CC(=O)N(Cc2ccc(-c3noc(C(F)(F)F)n3)cc2)C1=O [Compound A-50, 1-methyl-3-[[4-[5-(trifluoromethyl)-1,2,4-oxadiazol-3-yl]phenyl]methyl]imidazolidine-2,4-dione]
≥ 80%: inhibition of growth at 20 ppm [1] | pest or weed control at 200 ppm (Phakopsora pachyrhizi) | pest or weed control at 200 ppm [2] | pest or weed control at 200 ppm [3]
